Here are results for one compound from patent publication US20150099774A1, “Pyrido [3,4-C] [1,9] phenanthroline and 11, 12 dihydropyrido [3,4-C] [1,9] phenanthroline derivatives and the use thereof, particularly for treating cancer” (CHRISTIAN-ALBRECHTS-UNIVERSITAET ZU KIEL, priority 2012, published 2015).

Common to all, as to type: cell-based, human
In one assay the test system is Breast cancer cell lines. As to the kind of experiment: NCI in vitro anti-tumor screening, 1 μM, mean of breast cancer lines. The following applies: c = 1 μM.
For a further assay, the system named is UACC-257. The experiment in a line: NCI in vitro anti-tumor screening, 1 μM, SRB. The following applies: c = 1 μM; UACC-257 (Melanoma); two days.
In the next assay the test system is BT-549. As to the kind of experiment: NCI in vitro anti-tumor screening, 1 μM, SRB. The following applies: c = 1 μM; BT-549 (Breast cancer); two days.
The subject of a further assay is MDA-MB-231/ATCC. As to the kind of experiment: NCI in vitro anti-tumor screening, 1 μM, SRB. The following applies: c = 1 μM; MDA-MB-231/ATCC (Breast cancer); two days.
A further assay deals with SK-MEL-2. As to the kind of experiment: NCI in vitro anti-tumor screening, 1 μM, SRB. The following applies: c = 1 μM; SK-MEL-2 (Melanoma); two days.
A further assay has as its system MDA-MB-435. The experiment in a line: NCI in vitro anti-tumor screening, 1 μM, SRB. The following applies: c = 1 μM; MDA-MB-435 (Melanoma); two days.
A further assay relates to MCF7. As to the kind of experiment: NCI in vitro anti-tumor screening, 1 μM, SRB. The following applies: c = 1 μM; MCF7 (Breast cancer); two days.
Another assay deals with M14. As to the kind of experiment: NCI in vitro anti-tumor screening, 1 μM, SRB. The following applies: c = 1 μM; M14 (Melanoma); two days.
The test system of a further assay is MALME-3M. As to the kind of experiment: NCI in vitro anti-tumor screening, 1 μM, SRB. The following applies: c = 1 μM; MALME-3M (Melanoma); two days.
The subject of the next assay is Leukemia cell lines. The experiment in a line: NCI in vitro anti-tumor screening, 1 μM, mean of leukemia lines. The following applies: c = 1 μM.
In the next assay the test system is HL-60(TB). The experiment in a line: NCI in vitro anti-tumor screening, 1 μM, SRB. The following applies: c = 1 μM; HL-60(TB) (Leukemia); two days.
The next assay deals with SK-MEL-28. As to the kind of experiment: NCI in vitro anti-tumor screening, 1 μM, SRB. The following applies: c = 1 μM; SK-MEL-28 (Melanoma); two days.
The next assay deals with MDA-MB-468. As to the kind of experiment: NCI in vitro anti-tumor screening, 1 μM, SRB. The following applies: c = 1 μM; MDA-MB-468 (Breast cancer); two days.
The test system of a further assay is MOLT-4. As to the kind of experiment: NCI in vitro anti-tumor screening, 1 μM, SRB. The following applies: c = 1 μM; MOLT-4 (Leukemia); two days.
A further assay concerns K-562. The experiment in a line: NCI in vitro anti-tumor screening, 1 μM, SRB. The following applies: c = 1 μM; K-562 (Leukemia); two days.
The test system of a further assay is UACC-62. As to the kind of experiment: NCI in vitro anti-tumor screening, 1 μM, SRB. The following applies: c = 1 μM; UACC-62 (Melanoma); two days.
For another assay, the system named is T-47D. The experiment in a line: NCI in vitro anti-tumor screening, 1 μM, SRB. The following applies: c = 1 μM; T-47D (Breast cancer); two days.
The test system of the next assay is Melanoma cell lines. The experiment in a line: NCI in vitro anti-tumor screening, 1 μM, mean of melanoma lines. The following applies: c = 1 μM.
The next assay relates to 60 tumor cell lines. As to the kind of experiment: NCI in vitro anti-tumor screening, 1 μM, all 60 cell lines. The following applies: c = 1 μM; all 60 cell lines.
In a further assay the test system is SK-MEL-5. As to the kind of experiment: NCI in vitro anti-tumor screening, 1 μM, SRB. The following applies: c = 1 μM; SK-MEL-5 (Melanoma); two days.
The test system of a further assay is RPMI-8226. The experiment in a line: NCI in vitro anti-tumor screening, 1 μM, SRB. The following applies: c = 1 μM; RPMI-8226 (Leukemia); two days.
In the next assay the test system is LOX IMVI. The experiment in a line: NCI in vitro anti-tumor screening, 1 μM, SRB. The following applies: c = 1 μM; LOX IMVI (Melanoma); two days.

For `Nc1nc2c(c3ccncc13)C(c1ccc(Br)cc1)Cc1ccncc1-2` (stereo not shown), the figures for the “Percentage cell growth, Arithmetic mean” value with Breast cancer cell lines, in the assay on Leukemia cell lines and in the assay on Melanoma cell lines were 80.8%, 73.8% and 97.4%, respectively. The Percentage cell growth in the assay on UACC-257 is on record as 107.8%; in the assay on BT-549, 67.8%; in the assay on MDA-MB-231/ATCC, 80.6%; with SK-MEL-2 it was 94.1%; in the assay with MDA-MB-435 it was 107%; with MCF7, 83.4%. The Percentage cell growth in the assay with M14 is given as 93.4%; in the assay on MALME-3M it was 98.2%; in the assay with HL-60(TB), 70.3%; in the assay on SK-MEL-28 it was 112.5%; in the assay on MDA-MB-468, 87.6%; with MOLT-4 it was 75.3%. Besides, the Percentage cell growth was 84.9% in the assay with K-562; 81.7% with UACC-62; 84.6% in the assay with T-47D; 86.2% with SK-MEL-5; 64.7% in the assay on RPMI-8226; 95.7% in the assay with LOX IMVI. Further, the “Percentage cell growth, Arithmetic mean of all 60 cell lines” value with 60 tumor cell lines turned out to be 90.5%.
